Data from patent publication US20230114728A1 (Venatorx Pharmaceuticals, Inc., priority 2019, published 2023).
Values after ≈ are worked out from the molar mass of the structure shown. Like-named read-outs stand apart in the source and are kept apart here.

Legend:
N. gonorrhoeae FA1090 = test: Liquid broth MIC in Fastidious broth; format: cell-based; conditions: Neisseria gonorrhoeae
How it was run: (§1)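 Colonies were swabbed from chocolate agar after 24 h growth and standardised by optical density at 600 nm. Compounds were serially diluted twofold in Fastidious broth, and bacteria added to give 5×10^5 CFU/mL. After about 24 h at 36 °C in 5% CO2, the lowest concentration allowing under 10% growth was taken as MIC.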

N. gonorrhoeae WHO L = test: Liquid broth MIC in Fastidious broth; format: cell-based; conditions: Neisseria gonorrhoeae, read-out: Minimum Inhibitory Concentration, N. gonorrhoeae WHO L
How it was run: as §1

N. gonorrhoeae H041 = test: Liquid broth MIC in Fastidious broth; format: cell-based; conditions: Neisseria gonorrhoeae, H041, read-out: Minimum Inhibitory Concentration, N. gonorrhoeae H041
How it was run: (§2)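 Strains bearing mosaic PBP2 grown 24 h on chocolate agar (36° C, 5% CO2), suspended in saline and added to 2-fold compound dilutions in Fastidious broth at 5×10^5 CFU/mL. After ~24 hours at 36° C with 5% CO2, MIC taken visually as lowest well with <10% growth relative to full growth.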

[1] = tested on: N. gonorrhoeae ATCC 49226; test: Liquid broth MIC in Fastidious broth; format: cell-based; conditions: Neisseria gonorrhoeae
How it was run: as §1

N. gonorrhoeae WHO K = test: Liquid broth MIC in Fastidious broth; format: cell-based; conditions: Neisseria gonorrhoeae, read-out: Minimum Inhibitory Concentration, N. gonorrhoeae WHO K
How it was run: as §2

N. gonorrhoeae WHO G = test: Liquid broth MIC in Fastidious broth; format: cell-based; conditions: Neisseria gonorrhoeae, read-out: Minimum Inhibitory Concentration, N. gonorrhoeae WHO G
How it was run: as §1

E. coli K12 PBP3 = molecular target: T1, E. coli K12 PBP3 (Escherichia coli, UniProt P0AD68); test: biochemical; format: binding
T1 construct: made in house
T1 sequence (P0AD68 1-577): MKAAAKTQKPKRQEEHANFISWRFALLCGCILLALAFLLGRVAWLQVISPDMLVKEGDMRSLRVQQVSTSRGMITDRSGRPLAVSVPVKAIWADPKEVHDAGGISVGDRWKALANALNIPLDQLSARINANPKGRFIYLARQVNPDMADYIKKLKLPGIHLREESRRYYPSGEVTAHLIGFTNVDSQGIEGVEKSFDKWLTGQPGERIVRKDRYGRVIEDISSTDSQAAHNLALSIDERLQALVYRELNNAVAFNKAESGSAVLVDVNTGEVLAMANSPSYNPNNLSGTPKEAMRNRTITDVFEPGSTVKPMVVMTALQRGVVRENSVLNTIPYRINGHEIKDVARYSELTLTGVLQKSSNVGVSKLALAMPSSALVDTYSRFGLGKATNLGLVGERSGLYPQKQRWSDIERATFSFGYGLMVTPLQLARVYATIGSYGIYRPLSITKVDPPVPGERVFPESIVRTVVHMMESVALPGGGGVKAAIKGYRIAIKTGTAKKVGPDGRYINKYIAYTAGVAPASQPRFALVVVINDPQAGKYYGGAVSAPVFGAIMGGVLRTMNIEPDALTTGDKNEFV
How it was run: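 A. baumannii PBP2 (2.5 μM) and PBP3 (0.2 μM) were run in 25 mM Tris pH 8.0 buffer with Tween 20; E. coli PBP3 (1.5 μM) and N. gonorrhoeae PBP2 ([…]) in 50 mM Hepes pH 8.0 buffer.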

[2] = N. gonorrhoeae strain FA1090, Fastidious broth, read-out: Minimum Inhibitory Concentration, N. gonorrhoeae FA1090
[3] = N. gonorrhoeae strain WHO L, Fastidious broth
[4] = ATCC49226, N. gonorrhoeae strain ATCC 49226, Fastidious broth, read-out: Minimum Inhibitory Concentration, N. gonorrhoeae ATCC 49226
[5] = N. gonorrhoeae strain WHO G, Fastidious broth

CS(=O)(=O)N1CCN(C(=O)NC(C(=O)N[C@H]2Cc3ccc(F)c(C(=O)O)c3OB2O)c2ccc(O)c(O)c2Cl)C1=O (stereo partly drawn) [Example 23, (3R)-3-(2-(2-chloro-3,4-dihydroxyphenyl)-2-(3-(methylsulfonyl)-2-oxoimidazolidine-1-carboxamido)acetamido)-7-fluoro-2-hydroxy-3,4-dihydro-2H-benzo[e][1,2]oxaborinine-8-carboxylic acid]
MIC (N. gonorrhoeae FA1090; [2]): 4 to 8 µg/mL (≈ 6.51 to 13 µM) | MIC (N. gonorrhoeae WHO L; [3]): > 64 µg/mL | MIC (N. gonorrhoeae H041): > 64 µg/mL | MIC [1, 4]: > 64 µg/mL | MIC (N. gonorrhoeae WHO K): > 64 µg/mL | MIC (N. gonorrhoeae WHO G; [5]): 16 to 32 µg/mL (≈ 26 to 52.1 µM) | EC50 (E. coli K12 PBP3): < 30 µM

NCCN1CCN(C(=O)NC(C(=O)N[C@H]2Cc3ccc(F)c(C(=O)O)c3OB2O)c2nc(N)sc2F)C(=O)C1=O (stereo partly drawn) [Example 24, (3R)-3-(2-(2-amino-5-fluorothiazol-4-yl)-2-(4-(2-aminoethyl)-2,3-dioxopiperazine-1-carboxamido)acetamido)-7-fluoro-2-hydroxy-3,4-dihydro-2H-benzo[e][1,2]oxaborinine-8-carboxylic acid]
MIC (N. gonorrhoeae FA1090; [2]): 16 to 32 µg/mL (≈ 27.5 to 55 µM) | MIC (N. gonorrhoeae WHO L; [3]): > 64 µg/mL | MIC (N. gonorrhoeae H041): > 64 µg/mL | MIC [1, 4]: > 64 µg/mL | MIC (N. gonorrhoeae WHO K): > 64 µg/mL | MIC (N. gonorrhoeae WHO G; [5]): 16 to 32 µg/mL (≈ 27.5 to 55 µM) | EC50 (E. coli K12 PBP3): 30 to 500 µM

NC(C(=O)N[C@H]1Cc2ccc(F)c(C(=O)O)c2OB1O)c1c(F)cc(O)c(O)c1Cl (stereo partly drawn) [Example 25, (3R)-3-(2-amino-2-(2-chloro-6-fluoro-3,4-dihydroxyphenyl)acetamido)-7-fluoro-2-hydroxy-3,4-dihydro-2H-benzo[e][1,2]oxaborinine-8-carboxylic acid]
MIC (N. gonorrhoeae FA1090; [2]): > 64 µg/mL | MIC (N. gonorrhoeae WHO L; [3]): > 64 µg/mL | MIC (N. gonorrhoeae H041): > 64 µg/mL | MIC [1, 4]: > 64 µg/mL | MIC (N. gonorrhoeae WHO K): > 64 µg/mL | MIC (N. gonorrhoeae WHO G; [5]): > 64 µg/mL | EC50 (E. coli K12 PBP3): 30 to 500 µM

CCN1CCN(C(=O)NC(C(=O)N[C@H]2Cc3cccc(C(=O)O)c3OB2O)c2ccc(O)c(N)c2)C(=O)C1=O (stereo partly drawn) [Example 29, (3R)-3-(2-(3-amino-4-hydroxyphenyl)-2-(4-ethyl-2,3-dioxopiperazine-1-carboxamido)acetamido)-2-hydroxy-3,4-dihydro-2H-benzo[e][1,2]oxaborinine-8-carboxylic acid]
MIC (N. gonorrhoeae FA1090; [2]): 4 to 8 µg/mL (≈ 7.42 to 14.8 µM) | MIC (N. gonorrhoeae WHO L; [3]): > 64 µg/mL | MIC (N. gonorrhoeae H041): > 64 µg/mL | MIC [1, 4]: > 64 µg/mL | MIC (N. gonorrhoeae WHO K): > 64 µg/mL | MIC (N. gonorrhoeae WHO G; [5]): 16 to 32 µg/mL (≈ 29.7 to 59.3 µM) | EC50 (E. coli K12 PBP3): < 30 µM

CCN1CCN(C(=O)NC(C(=O)N[C@H]2Cc3cccc(C(=O)O)c3OB2O)c2ccc(O)c(NS(N)(=O)=O)c2)C(=O)C1=O (stereo partly drawn) [Example 30, (3R)-3-(2-(4-ethyl-2,3-dioxopiperazine-1-carboxamido)-2-(4-hydroxy-3-(sulfamoylamino)phenyl)acetamido)-2-hydroxy-3,4-dihydro-2H-benzo[e][1,2]oxaborinine-8-carboxylic acid]
MIC (N. gonorrhoeae FA1090; [2]): 1 to 2 µg/mL (≈ 1.62 to 3.23 µM) | MIC (N. gonorrhoeae WHO L; [3]): > 64 µg/mL | MIC (N. gonorrhoeae H041): > 64 µg/mL | MIC [1, 4]: > 64 µg/mL | MIC (N. gonorrhoeae WHO K): > 64 µg/mL | MIC (N. gonorrhoeae WHO G; [5]): 16 to 32 µg/mL (≈ 25.9 to 51.7 µM) | EC50 (E. coli K12 PBP3): < 30 µM

CCN1CCN(C(=O)NC(C(=O)N[C@H]2Cc3cccc(C(=O)O)c3OB2O)c2ccc(C(=O)O)c(F)c2)C(=O)C1=O (stereo partly drawn) [Example 31, (3R)-3-(2-(4-carboxy-3-fluorophenyl)-2-(4-ethyl-2,3-dioxopiperazine-1-carboxamido)acetamido)-2-hydroxy-3,4-dihydro-2H-benzo[e][1,2]oxaborinine-8-carboxylic acid]
MIC (N. gonorrhoeae FA1090; [2]): < 0.125 µg/mL | MIC (N. gonorrhoeae WHO L; [3]): 4 to 8 µg/mL (≈ 7.01 to 14 µM) | MIC (N. gonorrhoeae H041): 4 to 8 µg/mL (≈ 7.01 to 14 µM) | MIC [1, 4]: 1 to 2 µg/mL (≈ 1.75 to 3.51 µM) | MIC (N. gonorrhoeae WHO K): 4 to 8 µg/mL (≈ 7.01 to 14 µM) | MIC (N. gonorrhoeae WHO G; [5]): 1 to 2 µg/mL (≈ 1.75 to 3.51 µM) | EC50 (E. coli K12 PBP3): < 30 µM

N[C@@H](C(=O)N[C@H]1Cc2ccc(F)c(C(=O)O)c2OB1O)c1ccc(OS(=O)(=O)F)cc1 [Example 32, (R)-3-((R)-2-amino-2-(4-((fluorosulfonyl)oxy)phenyl)acetamido)-7-fluoro-2-hydroxy-3,4-dihydro-2H-benzo[e][1,2]oxaborinine-8-carboxylic acid]
MIC (N. gonorrhoeae FA1090; FA1090, read-out: Minimum Inhibitory Concentration, N. gonorrhoeae FA1090): > 64 µg/mL | MIC (N. gonorrhoeae WHO L): > 64 µg/mL | MIC (N. gonorrhoeae H041): > 64 µg/mL | MIC ([1]; ATCC49226, read-out: Minimum Inhibitory Concentration, N. gonorrhoeae ATCC 49226): > 64 µg/mL | MIC (N. gonorrhoeae WHO K): > 64 µg/mL | MIC (N. gonorrhoeae WHO G): > 64 µg/mL | EC50 (E. coli K12 PBP3): > 500 µM
